For experiment [1], the target named is T1, human V1a receptor (Homo sapiens, UniProt P37288). The experiment is described as follows: V1a vasopressin receptor functional activity (intracellular calcium mobilization, FLIPR, V1a-HEK cells). It counts as cell-based. The conditions noted are these: V1a (first value of V1a/V2); vasopressin-challenged transfected HEK-293 cells. As to the method:
The V1a receptor is a G-protein coupled receptor, which upon activation triggers an increase in intracellular calcium mobilization. To evaluate compounds for their functional V1a receptor activity, HEK-293 cells were transfected with the human V1a receptor (V1a-HEK cells). HEK-293 cells were grown in DMEM (Dulbecco's modified Eagle Media) supplemented with 10% FBS and glutamine. HEK-cells were passed biweekly by trypsinization and seeded into 96 well plates at 33,000 cells per well. HEK-293 cells were transfected with human V1a receptor DNA using DMRIE-C reagent from Life Technologies (Carlsbad, Calif.). Stable lines were generated by selecting cells grown in culture media containing geneticin. After growing in Packard Clear-View black 96 well plates for 4-6 days, V1a-HEK cells were loaded with the calcium-sensitive fluorescence dye, FLUO-3 AM. Changes in intracellular calcium mobilization were measured by quantitating intracellular fluorescence using FLIPR (Fluorometric Imaging Plate Reader; Molecular Devices, Sunnyvale, Calif.). Test compounds were first added to the cells and the resulting changes in fluorescence measured to detect receptor agonistic activity. Five minutes later the cells were challenged with vasopressin to test compounds for their antagonistic activity. Receptor antagonists inhibit the ability of vasopressin to stimulate increases in intracellular fluorescence. IC50's were calculated.
On the technique in general: Calcium assays in cells follow changes in intracellular calcium, usually with a dye or a luminescent sensor.

Experiment [2] has as its target T1, human V1a receptor. In words: In-vitro binding assay, 3H-arginine-8-vasopressin, V1a membranes. The following applies: V1a (first value of V1a/V2). As for the experimental part:
(§1) Assay buffer is 50 mM Tris-Cl, 5 mM MgCl2, 0.1% BSA (pH 7.5) containing 5 μg/ml of aprotinin, leupeptin, pepstatin, 50 μg/ml bacitracin, and 1 mM Pefabloc (4-(2-Aminoethyl)-benzenesulfonyl fluoride, hydrochloride manufactured by Roche Diagnostics Corporation, Indianapolis, Ind. and distributed by Boehringer Mannheim). H3 vasopressin is ^3H-arginine-8-vasopressin (NEN Life Sciences, Boston, Mass.; 68.5 Ci/mmol, final concentration in assay is 0.65-0.75 nM). Into wells of 96-well round bottom polypropylene plates are added buffer, test compound, membrane (containing human V1a or V2 receptor), and H3 vasopressin. The reaction plates are allowed to sit at room temperature for one hour. The samples are filtered through Unifilter GF/C plates (PerkinElmer Life Sciences, Boston, Mass.) presoaked in 0.3 polyethyleneimine. The plates are washed 5 times with cold physiological saline containing 0.05% Tween 20. After drying, the bottom of the filter plates are sealed and 0.025 ml of Microscint-20 (Packard Instrument Co, Meriden, Conn.) is added to each filter. The top of the plate is sealed, and the plate is counted. Non-specific binding is determined by the addition of 1.25 μM arginine-8-vasopressin in those wells. % Inh. is calculated
(§2) [formula] as follows: (B) V1a Vasopressin Receptor Functional Activity

Experiment [3] addresses T2, human V2 receptor (Homo sapiens, UniProt P30518). In words: In-vitro binding assay, 3H-arginine-8-vasopressin, V2 membranes. The conditions noted are these: V2 (second value of V1a/V2). As for the experimental part:
as §1, §2

Experiment [4] deals with T2, human V2 receptor. The experiment is described as follows: V2 vasopressin receptor functional activity (cAMP accumulation, V2-HEK cells). It counts as cell-based. More on the design: expressed in transfected cells; host or cells: HEK-293. The conditions noted are these: V2 (second value of V1a/V2); vasopressin-stimulated cAMP in transfected HEK-293 cells. As for the experimental part:
The V2 receptor is also a G-protein coupled receptor which when activated induces an increase in cAMP turnover. Antagonism against the V2 receptor is determined by measuring cAMP accumulation in transfected HEK-293 cells expressing the human V-2 receptor (V2-HEK cells). Compounds are tested for their ability to block the stimulatory effects of vasopressin on cAMP accumulation. The cell content of cAMP is measured by radioimmunoassay using NEN flashplates.
(Changes in cAMP serve as a functional read-out for many G protein-coupled receptors.)

Each structure is given as a SMILES string.

T2 sequence (P30518 whole entry): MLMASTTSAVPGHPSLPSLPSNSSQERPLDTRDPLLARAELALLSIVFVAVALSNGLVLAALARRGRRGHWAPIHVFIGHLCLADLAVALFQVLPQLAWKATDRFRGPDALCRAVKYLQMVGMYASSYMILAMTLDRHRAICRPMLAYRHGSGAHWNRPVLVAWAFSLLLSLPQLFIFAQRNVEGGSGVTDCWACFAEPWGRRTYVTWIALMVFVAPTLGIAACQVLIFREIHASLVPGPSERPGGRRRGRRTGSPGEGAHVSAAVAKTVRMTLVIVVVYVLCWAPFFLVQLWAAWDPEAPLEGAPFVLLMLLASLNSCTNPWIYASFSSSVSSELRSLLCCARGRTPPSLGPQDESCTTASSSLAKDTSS
T1 sequence (P37288 whole entry): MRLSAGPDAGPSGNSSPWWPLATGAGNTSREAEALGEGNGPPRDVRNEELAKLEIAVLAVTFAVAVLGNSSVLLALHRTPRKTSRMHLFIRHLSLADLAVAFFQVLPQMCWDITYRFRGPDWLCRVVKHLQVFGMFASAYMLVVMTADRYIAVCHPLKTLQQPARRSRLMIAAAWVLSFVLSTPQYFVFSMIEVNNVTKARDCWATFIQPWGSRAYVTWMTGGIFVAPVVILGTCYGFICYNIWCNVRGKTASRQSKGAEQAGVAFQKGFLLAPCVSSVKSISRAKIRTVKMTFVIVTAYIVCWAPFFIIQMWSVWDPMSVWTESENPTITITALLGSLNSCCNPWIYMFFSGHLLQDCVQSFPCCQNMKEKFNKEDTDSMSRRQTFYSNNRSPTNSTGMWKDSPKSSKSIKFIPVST

Broadly, the IC50 is the midpoint of a concentration-inhibition curve. In the case of `CN(C)CCNC(=O)C1=CC2(CC1)CCN(C(=O)c1ccc(NC(=O)c3ccccc3-c3ccccc3)cc1)c1ccccc1C2` (racemic) [A, 4-(2-phenylbenzoyl-4-aminobenzoyl)-3′-[2-(N,N-dimethylaminoethylcarbony)]-4-aza-[6,4]-spiro-[5,6]-benzoundec-2′-ene, reference compound], the figures for the half-maximal inhibitory concentration (IC50) in experiment [1], in experiment [2] and in experiment [3] were 4 nM, 5 nM and 11 nM, respectively.
Regarding `CCOc1cc(C(=O)N2CC[C@]3(C=C(C(=O)O)CC3)Cc3ccccc32)ccc1NC(=O)c1cc(F)ccc1Cl` [Compound 31, (R)-4-(2-Chloro-5-fluorobenzoyl-3-ethoxy-4-aminobenzoyl)-4-aza-3′-carboxy-[6,4]-spiro-[5,6]-benzoundec-2′-ene], the IC50 in experiment [1] was determined as 50 nM; in experiment [2], 8 nM; in experiment [4], 150 nM; in experiment [3] it was 71 nM.
In the case of `COc1cc(C(=O)N2CC[C@]3(C=C(C(=O)O)CC3)Cc3ccccc32)ccc1NC(=O)c1cc(F)ccc1Cl` [Compound 29, (R)-4-(2-Chloro-5-fluorobenzoyl-3-methoxy-4-aminobenzoyl)-4-aza-3′-(carboxy)-[6,4]-spiro-[5,6]-benzoundec-2′-ene], the IC50 was found to be 38 nM in experiment [1], 5 nM in experiment [2], 52 nM in experiment [4] and 30 nM in experiment [3].
In the case of `O=C(O)C1=C[C@@]2(CC1)CCN(C(=O)c1ccc(NC(=O)c3cc(F)ccc3Cl)cc1)c1ccccc1C2` [reference compound], the half-inhibitory concentration (IC50) was found to be 380 nM in experiment [1], 13 nM in experiment [2], 100 nM in experiment [4] and 53 nM in experiment [3].

Source of the values: patent publication US7687494B2, “Substituted spirobenzazepines” (Janssen Pharmaceutica NV, priority 2003, dated 2010).
